Results taken from patent publication EP4778924A1 (Huons Co., Ltd., priority 2023, dated 2025).
Entries after “also recorded” stand apart in the source; their conditions may differ.

What was measured:
[1] = molecular target: T1, Proton Pump (H^+,K^+-ATPase) (Sus scrofa, UniProt P19156); test: Inhibitory activity on proton pump (H+,K+-ATPase) activity, porcine gastric vesicles, malachite green readout; format: biochemical; conditions: porcine gastric vesicles, pH 6.5, 8 mM KCl, 0.2 mM ATP
T1 construct: gastric vesicles were isolated from porcine stomachs; from tissue; host or cells: porcine stomach (gastric vesicles)
T1 sequence (P19156 2-1034 limits assumed): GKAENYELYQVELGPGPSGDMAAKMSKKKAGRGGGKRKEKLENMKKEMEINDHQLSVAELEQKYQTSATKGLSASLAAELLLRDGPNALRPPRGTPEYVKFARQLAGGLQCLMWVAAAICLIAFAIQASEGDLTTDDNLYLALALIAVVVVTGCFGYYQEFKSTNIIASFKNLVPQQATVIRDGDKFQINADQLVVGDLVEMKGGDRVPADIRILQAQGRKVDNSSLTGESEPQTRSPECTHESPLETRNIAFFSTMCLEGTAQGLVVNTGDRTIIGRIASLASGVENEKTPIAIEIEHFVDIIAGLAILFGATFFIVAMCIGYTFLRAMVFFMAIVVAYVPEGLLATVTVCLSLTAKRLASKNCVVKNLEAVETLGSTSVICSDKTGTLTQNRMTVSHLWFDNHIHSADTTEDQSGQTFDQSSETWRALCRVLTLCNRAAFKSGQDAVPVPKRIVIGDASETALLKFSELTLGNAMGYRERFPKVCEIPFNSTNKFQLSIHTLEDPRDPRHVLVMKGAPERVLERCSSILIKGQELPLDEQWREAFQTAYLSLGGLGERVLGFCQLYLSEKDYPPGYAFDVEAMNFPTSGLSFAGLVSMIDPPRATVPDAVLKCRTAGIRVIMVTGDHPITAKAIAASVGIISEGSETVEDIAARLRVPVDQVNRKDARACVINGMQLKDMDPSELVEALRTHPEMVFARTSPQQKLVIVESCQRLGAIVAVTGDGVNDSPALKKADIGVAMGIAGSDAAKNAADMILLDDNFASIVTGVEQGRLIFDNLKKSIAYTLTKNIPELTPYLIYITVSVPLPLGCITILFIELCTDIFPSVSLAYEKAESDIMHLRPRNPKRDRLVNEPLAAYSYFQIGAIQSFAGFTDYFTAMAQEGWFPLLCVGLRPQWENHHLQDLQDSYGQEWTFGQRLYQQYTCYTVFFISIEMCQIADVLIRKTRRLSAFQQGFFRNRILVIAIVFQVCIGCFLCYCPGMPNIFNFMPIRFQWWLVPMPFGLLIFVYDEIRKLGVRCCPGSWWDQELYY
T1 sequence (P18434 whole entry partner): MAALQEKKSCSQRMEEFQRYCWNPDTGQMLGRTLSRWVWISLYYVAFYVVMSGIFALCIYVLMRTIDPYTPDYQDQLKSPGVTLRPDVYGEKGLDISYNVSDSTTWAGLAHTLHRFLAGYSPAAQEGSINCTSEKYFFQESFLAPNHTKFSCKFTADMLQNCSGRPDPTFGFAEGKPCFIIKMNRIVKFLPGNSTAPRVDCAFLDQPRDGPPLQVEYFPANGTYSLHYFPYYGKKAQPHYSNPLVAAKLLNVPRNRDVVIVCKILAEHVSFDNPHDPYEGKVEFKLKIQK
Method in brief: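 Porcine gastric vesicles (100 ng) preincubated 30 min at 37°C with […] valinomycin and compound (0.1% DMSO final) in 50 mM Tris-HEPES, 5 mM MgCl2, 8 mM KCl, pH 6.5, then 0.2 mM ATP for 20 min at 37°C. Released phosphate measured by malachite green at 620 nm; IC50 via nonlinear regression of % inhibition.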

Pylorus-Ligated Rats = test: Inhibitory activity on basal gastric acid secretion in pylorus-ligated rats (Shay's rat model); format: in vivo, male Sprague Dawley (SD) rats; conditions: for inhibition in vivo at 2 mg/kg: Rattus norvegicus, po, read-out: GERD (rat/mpk); for inhibitory activity against basal gastric acid secretion: result in words, pyloric-ligated rats, 2 mg/kg oral
Method: Specifically, male Sprague Dawley (SD) rats (weighing 180-220 g) were fasted for 24 hours with only water, and then randomly assigned to groups (n=4-5) after measuring body weight. The negative control group was orally administered 10% dimethylsulfoxide (DMSO)/10% Cremophor EL/80% D.W. at 2 mL/kg, and the test group was orally administered the test compound at 2 mg/kg/2 mL. One hour after administration, the rats' abdominal cavity was incised under isoflurane anesthesia, the stomach was exposed, and the pylorus was ligated. Three hours after ligation, the test animals were sacrificed and the stomach contents were collected by laparotomy again. The contents were centrifuged (3,000 rpm, 10 min), and only the supernatant was separated to obtain gastric juice. Afterwards, gastric fluid volume measurement, gastric fluid pH measurement, NaOH titration, and total gastric acid secretion calculation (gastric fluid volume × 0.1 N NaOH titer × 100) were sequentially performed.

| Compound | IC50 [1] [nM] | inhibition in vivo at 2 mg/kg (Pylorus-Ligated Rats) [%] | inhibitory activity against basal gastric acid secretion (Pylorus-Ligated Rats) | inhibitory activity against basal gastric acid secretion (Pylorus-Ligated Rats; citrate, 2 mg/kg) |
| --- | --- | --- | --- | --- |
| Cc1cc(F)cc(C)c1CNc1cc(NC(=O)CO)cn2c(C)c(C)nc12.O=C(O)CC(O)(CC(=O)O)C(=O)O [Example 86, N-(8-((4-fluoro-2,6-dimethylbenzyl)amino)-2,3-dimethylimidazo[1,2-a]pyridin-6-yl)-2-hydroxyacetamide citrate] | < 50 | ≥ 90 | inhibitory activity |  |
| COCC(=O)Nc1cc(NCc2c(C)cc(F)cc2C)c2nc(C)c(C)n2c1.O=C(O)CC(O)(CC(=O)O)C(=O)O [Example 100, N-(8-((4-fluoro-2,6-dimethylbenzyl)amino)-2,3-dimethylimidazo[1,2-a]pyridin-6-yl)-2-methoxyacetamide citrate] | < 50 | ≥ 90 | inhibitory activity |  |
| Cc1cc(F)cc(C)c1CNc1cc(NC(=O)CCO)cn2c(C)c(C)nc12.O=C(O)CC(O)(CC(=O)O)C(=O)O [Example 101, N-(8-((4-fluoro-2,6-dimethylbenzyl)amino)-2,3-dimethylimidazo[1,2-a]pyridin-6-yl)-3-hydroxypropanamide citrate] | < 50 | 70 to 80 |  | inhibitory activity; also recorded: somewhat reduced |
| Cc1cccc(C)c1CNc1cc(NC(=O)CCO)cn2c(C)c(C)nc12.O=C(O)CC(O)(CC(=O)O)C(=O)O [Example 102, N-(8-((2,6-dimethylbenzyl)amino)-2,3-dimethylimidazo[1,2-a]pyridin-6-yl)-3-hydroxypropanamide citrate] | < 50 | ≥ 90 | inhibitory activity |  |
